# Experiment: gradient 5% acetonitrile 3 min, to 50% in 2 min, to 85% in 15 min, held 3 min, 100 µL/min
# Settings: column: Zorbax Extend-C18 2.1 x 50 mm; eluents: water / acetonitrile, 0.1% formic acid
# Outline: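 Using water and acetonitrile that each contained 0.1% formic acid, mixtures of ~100 pure standards were separated at 100 μL/min on a Zorbax Extend-C18 column (2.1 × 50 mm, 1.8 μm). The HPLC fed a quadrupole time-of-flight mass spectrometer working in positive and negative ionization mode, with dead and dwell volumes of 40 μL and 900 μL. Data were acquired over 3 months. Retention time was read from computationally picked adduct peaks after manual inspection of each.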
row,RP-LC retention time,Structure (SMILES)
1,770 s,COc1cccc(C(=O)N2CCN(S(=O)(=O)c3cc4c5c(c3)CCC(=O)N5CCC4)CC2)c1
2,712 s,CC(C)NC(=O)N1CCN(Cc2nc3cc(C(C)(C)C)ccc3o2)CC1
3,795 s,O=C(N1CCC(Cc2ccc(COCc3ccncc3)cc2)CC1)C1(c2ccccc2)CC1
4,573 s,Cc1ccccc1CN1CC(=O)NCC12CCCC2
5,702 s,O=C(O)c1cccc(Nc2c(-c3ccc(F)cc3)nc3cnccn23)c1
6,697 s,CC(=O)Nc1ccc(C(=O)NCCNC(=O)CC(c2ccccc2)c2ccccc2)cc1
7,772 s,O=C(CC(=O)Nc1ccccc1Cl)Nc1ccc2nc3n(c(=O)c2c1)CCCCC3
8,910 s,CSc1cccc(NC(=O)Cn2c(=O)n(-c3ccc(C)cc3)c(=O)c3c2cc(C)n3C)c1
9,767 s,CCOc1ccc(C(=O)N2CCC3(CC2)NC(=O)c2ccc(F)cc2N3C)cc1
10,1130 s,CCOC(=O)c1sc2nc(C)cc(C(F)(F)F)c2c1N
11,826 s,Nc1cc(C2CCN(S(=O)(=O)c3ccc(Cl)cc3)CC2)no1
12,858 s,O=C(Cn1cc(C(=O)c2ccco2)c2ccccc21)NCc1ccc2c(c1)OCCCO2
13,724 s,O=C(Nc1ccc2c(c1)OCCO2)N1CC[C@@H]2COC(=O)N(Cc3ccccc3)[C@@H]2C1
14,935 s,COc1ccc(-c2ncc3c(n2)CCN(S(=O)(=O)c2cccc4cccnc24)C3)cc1
15,816 s,Cc1cc2nn(CC(=O)N3CCC(C)CC3)c(=O)n2c(-c2ccc(F)cc2)n1
16,793 s,O=C(NC1CCCCC1)C1CCN(c2cnn(Cc3ccccc3)c(=O)c2)CC1
17,616 s,COCCNC(=O)N1CCC(c2nnc(C(F)(F)F)o2)CC1
18,647 s,CCCNC(=O)C(=O)NCC(c1ccc2c(c1)CCCN2C)N1CCCC1 (configuration not stated)
19,722 s,CCOc1ccc(N2C(=O)C3N=NN(Cc4nc(-c5ccc(Cl)cc5)no4)C3C2=O)cc1 (configuration not stated)
20,741 s,CC(=O)N1CCc2cc(N3CC(C(=O)NCc4cccc(F)c4)CC3=O)ccc21 (configuration not stated)
21,640 s,COc1ccc(C(C)NC(=O)Cc2cn(C)c3ncccc23)cc1OC (configuration not stated)
22,1120 s,O=C(NCc1cccs1)c1c(O)c2cccnc2n(-c2cccc(F)c2)c1=O

row,RP-LC retention time,Structure (SMILES)
1,876 s,CN(CCc1noc(COc2ccccc2)n1)C(=O)Nc1ccc(F)cc1
2,1050 s,CCCSCCCNC(=O)Cn1nc(-n2cccc2)c2c(C)cc(C)nc21
3,812 s,CCCn1cc(CCNC(=O)c2cccc(Cl)c2)c2cccnc21
4,603 s,CS(=O)(=O)c1cccc(C(=O)Nc2nnc(-c3ccno3)o2)c1
5,795 s,Cn1ccc2ccn(CC(=O)Nc3ccc(Br)cc3)c(=O)c21
6,963 s,Cc1ccc(NC(=O)C(C)C2CCN(C(=O)Nc3ccc(Cl)cc3)CC2)cc1 (configuration not stated)
7,985 s,O=c1[nH]nc(-c2cc(-c3ccccc3)nc3ccccc23)o1
8,797 s,COc1cc(C(CC(=O)N2CCCCCC2)N2Cc3ccccc3C2=O)cc(OC)c1OC (configuration not stated)
9,750 s,COc1ccccc1-c1cc(C(=O)N2CCCN(c3ccc(=O)n(-c4ccccc4)n3)CC2)[nH]n1
10,635 s,CC(=O)N1CCc2[nH]c3ccc(C(=O)NCc4ccc(N5CCOCC5)cc4)cc3c2C1
11,832 s,CCCc1nc(C(C)(C)O)c(C(=O)OCc2oc(=O)oc2C)n1Cc1ccc(-c2ccccc2-c2nn[nH]n2)cc1
12,585 s,CSc1ncccc1C(=O)NCc1ccc2c(c1)ncn2C(C)C
13,843 s,COc1ccc2nc(C(=O)NCc3ccc(C)cc3)cn2n1
14,1110 s,Cc1csc(-c2cc(S(=O)(=O)Nc3cc(Cl)ccc3C)c(C)s2)n1
15,912 s,O=C(Nc1ccc(C(F)(F)F)cc1)NC1CCN(c2ccccc2)C1=O (configuration not stated)
16,729 s,COc1ccc(C(=O)NC2CCN(C(=O)c3cc(-c4ccc(OC)cc4)n[nH]3)CC2)cc1
17,774 s,Cc1ccccc1S(=O)(=O)N1CCCC(CCC(=O)O)C1 (configuration not stated)
18,575 s,Cc1c(CCC(=O)N[C@H](CCS(C)=O)C(=O)O)c(=O)oc2cc(O)ccc12 (some centres not stated)
19,973 s,CCCOc1ccc(C2C(=O)N(C3CCCCC3)CC(=O)N2Cc2ccco2)cc1OC (configuration not stated)
20,898 s,O=C(Cn1nc2c(Oc3ccccc3)nccn2c1=O)Nc1ccc(Br)cc1F
21,1230 s,Fc1ccc(-c2nc(-c3ccc(-n4cccn4)nc3)no2)cc1
22,565 s,CC(=O)N1CCC2(CC1)N(CC1CC1)C(=O)CS2=O (configuration not stated)

row,RP-LC retention time,Structure (SMILES)
1,599 s,Cc1nc([C@@H]2CN(C(=O)CCc3nc4ccccc4s3)C[C@H]2C(N)=O)n[nH]1
2,944 s,COc1cc(OC)c(NC(=O)c2cnn(-c3ccccc3)c2)cc1Cl
3,737 s,CCOc1ccc(NC(=O)c2cccc(-n3cnnn3)c2)cc1
4,718 s,Cc1cc(C)n(-c2cc(NCCNC(=O)c3ccc(F)cc3F)ncn2)n1
5,921 s,Cc1cc(OC(C)C(=O)Nc2ccnn2Cc2ccco2)ccc1Cl (configuration not stated)
6,690 s,COCCNC(=O)c1nnn(-c2cccc(Cl)c2)c1-c1ccncc1
7,865 s,COc1ccc(C(=O)N2CCc3ccc(C(=O)NCc4ccc(C)o4)cc32)cc1
8,622 s,CCOC(=O)c1c(C)c(CCC(=O)NCCN2CCOCC2)c(C)n1C
9,1090 s,c1ccc(-c2cc3ccccc3[nH]2)cc1
10,717 s,Cc1ccc(NC(=O)N2CCCC(Cn3c(C4CC4)nc4cccnc43)C2)cc1F (configuration not stated)
11,559 s,CCOc1cccc2sc(N(CCCN(C)C)C(=O)CN3C(=O)CCC3=O)nc12
12,604 s,Cc1cc2n(n1)CCC(=O)N2CCCC(=O)N1CCN(C(=O)c2ccco2)CC1
13,1010 s,CCCN1C(=O)COc2ccc(-c3csc(NC(=O)C(C)(C)C)n3)cc21
14,655 s,COc1ccc(C2Cn3cnc(C(=O)N4CCC(C(=O)NCC5CCCO5)CC4)c3CO2)cc1 (configuration not stated)
15,831 s,COc1ccccc1C(=O)N1CCCC1c1cc(C(C)C)on1 (configuration not stated)
16,840 s,COc1ccc(NS(=O)(=O)c2cn(C(C)C)c3ncccc23)cc1
17,738 s,CCn1ccc(NC(=O)Nc2cccc(C)c2)n1
18,1120 s,CCN(CC)S(=O)(=O)c1cccc(-c2nnc(-c3cccc(C)c3)o2)c1
19,833 s,O=C(NCc1ccc(Cl)cc1)C1CC(=O)N(c2n[nH]c3cccc(F)c23)C1 (configuration not stated)
20,962 s,O=S(=O)(Cc1ccccc1F)N1CCC(c2noc(COCC3CC3)n2)CC1
21,727 s,CN1C(=O)c2cccn2CC1C(=O)NCC1CCCCC1 (configuration not stated)

row,Structure (SMILES),RP-LC retention time
1,O=C(NC1CN2CCC1CC2)c1cc2ccoc2cn1 (configuration not stated),620 s
2,COc1ccc(C2(C(=O)N3CCC4(CC3)C(OC)C(=O)N4c3cccc(F)c3)CC2)cc1 (configuration not stated),901 s
